What all share (type): biochemical
Conditions in all cases: HeLa S3 lysate, sfGFP/mCherry ratio, 2 hrs at 30° C.

The subject of one assay is MYC. Put plainly: In vitro transcription-translation (IVTT) reporter assay, MYC test sequence. In outline: (§1)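 Coupled transcription-translation in HeLa S3 lysate with reporter plasmids encoding mCherry-P2A-3×FLAG-TEST-sfGFP behind an EMCV IRES. Compounds were half-log titrated (30 μM-0.1 μM in DMSO dilution plate) into master mix, then DNA was added. Reactions ran 2 hrs at 30° C, were PBS-quenched and read for fluorescence.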
(In general: A reporter such as luciferase makes a cellular process visible.)

A further assay concerns CCND1. As to the kind of experiment: In vitro transcription-translation (IVTT) reporter assay, CCND1 test sequence. From the text:
(§2) All reporter constructs have been cloned into the pT7CFE1-CHis plasmid (ThermoFisher #88860) using Gibson assembly procedures (NEB #E2611L). The parental pT7CFE1-CHis plasmid contains an EMCV IRES at the 5′UTR for translation initiation, a multiple-cloning site (MCS) for gene insertion, an optional C-terminal His-epitope tag, and polyA sequence in the 3′UTR to regulate mRNA stability. All reporters are designed to be inserted at the MCS to include a red fluorescent protein (mCherry), P2A self-cleaving peptide which releases the preceding mCherry protein product, and a fusion open reading frame containing a 3×FLAG epitope, a peptide sequence of interest (TEST), and green fluorescent protein (sfGFP).
(§3) Construct Plasmid Preparation: All plasmids are isolated from MACH1 cells (ThermoFisher) grown overnight in ampicillin-containing luria broth, and purified using ZymoPure Express Plasmid Midiprep Kit (Zymo Research). Constructs are sequenced verified and diluted to a working concentration of 110 ng/μL.
(§4) HeLa S3 Lysate Preparation: HeLa S3 cell pellets are acquired from Ipracell/Ipratech (Belgium) and shipped as 4 mL frozen cell pellets on dry ice for storage at −80° C. until use. The procedure for lysate preparation is as follows. Prepare 1× Lysis Buffer, cold and stored on ice:
(§5) Each preparation takes 8 cell pellets (4 ml packed volume each, approximately 1.0×10^9 cells per pellet). Thaw cell pellets from −80° C. on ice for 90 mins. Lay pellets horizontally on top of the ice and rotate every 30 mins to ensure even thawing. Once thawed, add 4 mL of cold lysis buffer to each pellet, and using a serological pipet, gently pipet up and down to break up clumps. Incubate resuspended cells in ice for an additional 30 mins (plunged into ice). During 30 min incubation, rinse and RNase-zap (Ambion) glass dounces (use loose pestle “A”), gently dry and place on ice until needed. Prepare RNase-free Eppendorf tubes for spinning and for batch storage. Add batch labels to 1.5-1.7 mL RNase-free microcentrifuge tubes (labeling scheme below). Each batch will have an extra 1.5-1.7 mL RNase-free microcentrifuge tube for 40 μL of lysate, label the top of this tube (labeling scheme below). After 30 min incubation, transfer all 8 mL of cell pellet to dounce. Cell lysis is complete after douncing 100 times. Aliquot cell lysis into 1.5-1.7 mL temporary-microcentrifuge tubes. Place tubes in centrifuge with “fins” out, and spin at 1,200 xg for 5 mins. After the first spin use a 1 mL pipet to resuspend each tube and repeat spin. This acts as an additional lysis step, is more vigorous and increases lysate yield. During second spin get liquid N2 and a fresh conical tube on ice.
(§6) After spin is complete, transfer supernatant (lysate) from microcentrifuge tubes into the 50 mL conical tube and keep on ice. Repeat steps 10-14 for all other cell pellets until completed. Once all cell lysate has been transferred to the 50 mL conical tube pipet to mix so the solution is homogenous. Transfer 1 mL of lysate into batch-labeled microcentrifuge tubes and flash freeze in liquid nitrogen. Be sure to pipet up and down to mix throughout transfer step. Place all tubes in the […] for long-term storage.
(§7) In vitro transcription-translation assay setup: Each assay includes a master mix containing lysate and shared components, a 96-well plate containing compound titrations for testing, a 96-well DNA plate with reporter constructs to be tested, 96-well skirted PCR plates, and 96-well flat-bottom, black, fluorescent assay plates. […]

The next assay deals with KRAS G12D. As to the kind of experiment: In vitro transcription-translation (IVTT) reporter assay, KRAS G12D test sequence. In outline:
as §1

Another assay deals with ALK. As to the kind of experiment: In vitro transcription-translation (IVTT) reporter assay, ALK test sequence. In short, it runs like this:
as §1

The next assay concerns MCL-1. As to the kind of experiment: In vitro transcription-translation (IVTT) reporter assay, MCL-1 test sequence.
Text: as §2, §3, §4, §5, §6, §7

For orientation: IC50 means the concentration needed to halve the response being measured.

For `COc1ccc(C[C@H]2NC[C@H](O)[C@H]2OC(=O)CCCCCO)cc1` [V186777], the IC50 with MYC, with CCND1, in the assay with KRAS G12D and in the assay with ALK was < 10 µM throughout.

Turning to `COc1ccc(C[C@H]2NC[C@H](O)[C@H]2OC(=O)CC2NC(=O)CNC2=O)cc1` (stereo partly drawn) [V186862, (2R,3S,4S)-4-hydroxy-2-[(4-methoxyphenyl)methyl]pyrrolidin-3-yl 2-(3,6-dioxopiperazin-2-yl)acetate], the IC50 in the assay with MYC was < 10 µM; in the assay with CCND1, > 30 µM; in the assay on KRAS G12D, > 30 µM; with ALK, < 10 µM.

For the molecule `COc1ccc(C[C@H]2NC[C@H](O)[C@H]2OC(=O)C2CCC2)cc1` [V186921, (2R,3S,4S)-4-hydroxy-2-[(4-methoxyphenyl)methyl]pyrrolidin-3-ylcyclobutanecarboxylate; trifluoroacetic acid], the IC50 in the assay with MYC, with CCND1 and in the assay with KRAS G12D was < 10 µM throughout.

As to `COc1ccc(C[C@H]2NC[C@H](O)[C@H]2OC(=O)CC(C)C)cc1` [V187035, (2R,3S,4S)-4-hydroxy-2-[(4-methoxyphenyl)methyl]pyrrolidin-3-yl 3-methylbutanoate], the IC50 in the assay with MCL-1, in the assay on MYC, in the assay on CCND1, in the assay on KRAS G12D and in the assay on ALK was < 10 µM throughout.

For `COc1ccc(C[C@H]2NC[C@H](O)[C@H]2OC(=O)CN2CC(F)(F)C2)cc1` [V187045, (2R,3S,4S)-4-hydroxy-2-[(4-methoxyphenyl)methyl]pyrrolidin-3-yl 2-(3,3-difluoroazetidin-1-yl)acetate; trifluoroacetic acid], the IC50 with CCND1 and in the assay on ALK was < 10 µM in each case.

Regarding `COc1ccc(C[C@H]2NC[C@H](O)[C@H]2OC(=O)Cc2ccc(Cl)cc2)cc1` [V187055, (2R,3S,4S)-4-hydroxy-2-[(4-methoxyphenyl)methyl]pyrrolidin-3-yl 2-(4-chlorophenyl)acetate; trifluoroacetic acid], the IC50 in the assay with MCL-1, with MYC, with CCND1 and with KRAS G12D was < 10 µM throughout.

For the molecule `COc1ccc(C[C@H]2NC[C@H](O)[C@H]2OC(=O)Cc2ccncc2)cc1` [V187056], the IC50 in the assay on MYC, in the assay with CCND1 and in the assay with ALK was < 10 µM throughout.

As for `COc1ccc(C[C@H]2NC[C@H](O)[C@H]2OC(=O)Cc2cc(Br)cs2)cc1` [V187070, (2R,3S,4S)-4-hydroxy-2-[(4-methoxyphenyl)methyl]pyrrolidin-3-yl 2-(4-bromothiophen-2-yl)acetate], the concentration for half-maximal inhibition (IC50) in the assay with MCL-1, with MYC, in the assay with CCND1 and with KRAS G12D was < 10 µM in each case.

Take `COc1ccc(C[C@H]2NC[C@H](O)[C@H]2OC(=O)Cc2ccccn2)cc1` [V187082, (2R,3S,4S)-4-hydroxy-2-[(4-methoxyphenyl)methyl]pyrrolidin-3-yl 2-(pyridin-2-yl)acetate]: the IC50 in the assay on MYC, in the assay with CCND1, in the assay with KRAS G12D and in the assay on ALK was < 10 µM throughout.

In the case of `COc1ccc(C[C@H]2NC[C@H](O)[C@H]2OC(=O)Cc2cnccn2)cc1` [V187088, (2R,3S,4S)-4-hydroxy-2-[(4-methoxyphenyl)methyl]pyrrolidin-3-yl 2-(pyrazin-2-yl)acetate], the half-inhibitory concentration (IC50) with MYC, in the assay on CCND1, in the assay on KRAS G12D and in the assay on ALK was < 10 µM each time.

Regarding `COc1ccc(C[C@H]2NC[C@H](O)[C@H]2OC(=O)CCNC(C)C)cc1` [V187155, (2R,3S,4S)-4-hydroxy-2-[(4-methoxyphenyl)methyl]pyrrolidin-3-yl 3-(isopropylamino)propanoate; trifluoroacetic acid], the IC50 is > 30 µM in the assay with MYC, < 10 µM with CCND1, > 30 µM in the assay with KRAS G12D and 10 to 20 µM in the assay with ALK.

Turning to `COc1ccc(C[C@H]2NC[C@H](O)[C@H]2OC(=O)CC(F)(F)F)cc1` [V187162, (2R,3S,4S)-4-hydroxy-2-[(4-methoxyphenyl)methyl]pyrrolidin-3-yl 3,3,3-trifluoropropanoate; trifluoroacetic acid], the IC50 with MYC, in the assay on CCND1, with KRAS G12D and in the assay on ALK was < 10 µM each time.

`COCCC(=O)OC1[C@@H](O)CN[C@@H]1Cc1ccc(OC)cc1` (stereo partly drawn) [V187168]: the IC50 in the assay on MYC, in the assay on CCND1 and in the assay with ALK was < 10 µM throughout.

Regarding `COc1ccc(C[C@H]2NC[C@H](O)[C@H]2OC(=O)CNC2CC2)cc1` [V187170, (2R,3S,4S)-4-hydroxy-2-[(4-methoxyphenyl)methyl]pyrrolidin-3-yl 2-(cyclopropylamino)acetate], the IC50 in the assay on MYC, with CCND1 and in the assay on ALK was < 10 µM throughout.

Turning to `COc1ccc(C[C@H]2NC[C@H](O)[C@H]2OC(=O)CNC2CC(F)(F)C2)cc1` [V187172], the IC50 in the assay with MYC, with CCND1, in the assay on KRAS G12D and with ALK was < 10 µM in each case.

In the case of `COc1ccc(C[C@H]2NC[C@H](O)[C@H]2OC(=O)CCc2cocn2)cc1` [V187176, (2R,3S,4S)-4-hydroxy-2-[(4-methoxyphenyl)methyl]pyrrolidin-3-yl 3-(1,3-oxazol-4-yl)propanoate; trifluoroacetic acid], the half-inhibitory concentration (IC50) in the assay on MYC, in the assay with CCND1 and in the assay with KRAS G12D was < 10 µM in each case.

With `COc1ccc(C[C@H]2NC[C@H](O)[C@H]2OC(C)=O)cc1F` [V187569], the IC50 in the assay with MCL-1, in the assay on MYC and with CCND1 was < 10 µM in each case.

As for `CC(=O)O[C@@H]1[C@@H](O)CN[C@@H]1Cc1ccc(-c2cn(Cc3ccccc3)nn2)cc1` [V187750], the IC50 in the assay on MYC, in the assay on CCND1, in the assay on KRAS G12D and in the assay on ALK was < 10 µM each time.

For `COc1ccc(C[C@H]2NC[C@H](O)[C@H]2OC(C)=O)cc1C#N` [V188045], the IC50 in the assay on MCL-1, with MYC and in the assay on CCND1 was > 30 µM throughout.

Take `COc1ccc(C[C@H]2NC[C@H](O)[C@H]2OC(C)=O)cc1Cl` [V188046]: the IC50 in the assay with MCL-1, with MYC and in the assay on CCND1 was < 10 µM throughout.

On to `CC(=O)O[C@@H]1[C@@H](O)CN[C@@H]1Cc1ccc(-c2cn(-c3ccnc(N)n3)nn2)cc1` [V188057, (2R,3S,4S)-2-({4-[1-(2-aminopyrimidin-4-yl)-1,2,3-triazol-4-yl]phenyl}methyl)-4-hydroxypyrrolidin-3-yl acetate], for which the IC50 in the assay on MYC and in the assay on CCND1 was < 10 µM throughout.

As to `CC(=O)O[C@@H]1[C@@H](O)CN[C@@H]1Cc1ccc([N+](=O)[O-])cc1` [V188168, (2R,3S,4S)-4-hydroxy-2-[(4-nitrophenyl)methyl]pyrrolidin-3-yl acetate], the IC50 in the assay on MCL-1, in the assay on MYC and in the assay with CCND1 was < 10 µM throughout.

Turning to `COc1ccc(C[C@H]2NC[C@](C)(O)[C@H]2OC(C)=O)cc1` [V188182, (2R,3S,4S)-4-hydroxy-2-[(4-methoxyphenyl)methyl]-4-methylpyrrolidin-3-yl acetate], the IC50 in the assay on MCL-1 and with MYC was > 30 µM each time.
